The values below come from patent publication US20150239831A1, “INHIBITORS OF CENTRAL NERVOUS SYSTEM VASOACTIVE INHIBITORY PEPTIDE RECEPTOR 2” (The Trustees Of Columbia University In The City Of New York, priority 2012, published 2015).

Type in all cases: cell-based
Common to all, as to parameters: expressed in transfected cells; host or cells: HEK293 cells transfected with VIPR2 in pCDNA3.1 (as described)

Assay [1] deals with T1, VIPR2 (Homo sapiens, UniProt P41587).
T1 sequence (P41587 24-438): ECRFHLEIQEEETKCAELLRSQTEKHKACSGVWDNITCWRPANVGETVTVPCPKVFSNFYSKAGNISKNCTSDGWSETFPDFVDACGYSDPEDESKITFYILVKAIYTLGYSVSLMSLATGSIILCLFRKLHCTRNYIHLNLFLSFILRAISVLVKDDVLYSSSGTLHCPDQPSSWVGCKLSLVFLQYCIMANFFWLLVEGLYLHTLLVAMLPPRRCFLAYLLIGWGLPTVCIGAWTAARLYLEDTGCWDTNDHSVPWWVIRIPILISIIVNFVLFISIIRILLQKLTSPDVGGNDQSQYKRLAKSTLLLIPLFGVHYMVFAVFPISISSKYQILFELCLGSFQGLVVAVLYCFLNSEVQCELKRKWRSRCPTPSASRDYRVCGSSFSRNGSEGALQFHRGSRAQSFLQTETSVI
Kind of assay: Inhibition of VIP-induced cAMP elevation (% Activity cAMP). Put shortly:
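HEK293 cells stably transfected with human VIPR2 were incubated with inhibitor and VIP for 30 min, then cAMP was detected by HTRF after at least 1 h at room temperature. The 665/620 nm ratio ×10,000 was calculated.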

The target of assay [2] is T1, VIPR2. Kind of assay: % Activity: inhibition of VIP-induced cAMP elevation and β-arrestin recruitment (Table 2). In short, it runs like this: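 cAMP: HEK293 stably expressing hVIPR2, inhibitor plus VIP 30 min, cAMP by HTRF (665/620 nm ratio ×10,000). β-arrestin: HEK293 with β-arrestin2-β-gal-EA, transiently transfected with VIPR2-ProLink; inhibitor 2 h at 37° C, enzyme complementation read by luminescence.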
(In general: Arrestin recruitment assays detect the binding of arrestin to an activated receptor.)

Assay [3] deals with T1, VIPR2. Description: Inhibition of VIP-induced β-arrestin recruitment (% Activity Arrestin). In short, it runs like this:
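HEK293 cells stably expressing β-arrestin2–β-gal EA, transiently transfected with ProLink-tagged hVIPR2, plated overnight; inhibitor added for 2 h at 37 °C, 5% CO2. Receptor–arrestin complementation read by chemiluminescence after 5 min–1 h at room temperature; inhibition of VIP-induced recruitment reported as % activity.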

The term inhibition denotes the relative decrease from the control value, in per cent. For the compound `CNC(=O)[C@H](Cc1ccccc1)C[C@H](O)CNS(=O)(=O)c1ccc([N+](=O)[O-])cc1` [Compound B20], at VIPR2 [1] (Batch 2), the inhibition at 0.5 µM worked out at 7%, the inhibition at 1 µM came out at 8.3% and the inhibition at 5 µM was 9.3%. The “% Activity” value at VIPR2 [2] is recorded as 6.25%. At VIPR2 [3] (Batch 2), the inhibition at 0.5 µM amounted to 6.9%, the inhibition at 1 µM is 4% and the inhibition at 5 µM was found to be 3.2%.
In the case of `C#CCNC(=O)[C@H](Cc1ccccc1)C[C@H](O)CNS(=O)(=O)c1ccc([N+](=O)[O-])cc1` [Compound B21A], on VIPR2 [1] (Batch 2), the inhibition at 0.5 µM worked out at 5.4%, the inhibition at 1 µM came to 7.8% and the inhibition at 5 µM came out at 7.3%. In addition, at VIPR2 [2], the “% Activity” value turned out to be 3.55%. Also, on VIPR2 [3] (Batch 2), the inhibition at 0.5 µM is 9.4%, the inhibition at 1 µM is 7.2% and the inhibition at 5 µM was -0.2%.
For `C#CCNC(=O)[C@@H](Cc1ccccc1)C[C@H](O)CNS(=O)(=O)c1ccc([N+](=O)[O-])cc1` [Compound B21B], at VIPR2 [1] (Batch 2), the inhibition at 0.5 µM turned out to be 3.1%, the inhibition at 1 µM is 7.3% and the inhibition at 5 µM was found to be 13.5%. Also, on VIPR2 [2], the “% Activity” value was 10.25%. Moreover, on VIPR2 [3] (Batch 2), the inhibition at 0.5 µM worked out at 3.3%, the inhibition at 1 µM stood at 3.4% and the inhibition at 5 µM was 7%.
Regarding `Nc1ccc(S(=O)(=O)NC[C@@H](O)C[C@@H](Cc2ccccc2)C(=O)N[C@H]2c3ccccc3C[C@H]2O)cc1` [Compound X081], at VIPR2 [1] (Batch 3), the inhibition at 0.5 µM is 8.4%, the inhibition at 1 µM was 18.6% and the inhibition at 5 µM worked out at 33.3%. Also, on VIPR2 [2], the “% Activity” value is reported as 20%. Further, at VIPR2 [3] (Batch 3), the inhibition at 0.5 µM was -5.6%, the inhibition at 1 µM was -5.5% and the inhibition at 5 µM was determined as 6.7%.
On to `CNc1ccc(S(=O)(=O)NC[C@@H](O)C[C@@H](Cc2ccccc2)C(=O)N[C@H]2c3ccccc3C[C@H]2O)cc1` [Compound X082], for which, on VIPR2 [1] (Batch 3), the inhibition at 0.5 µM was -0.9%, the inhibition at 1 µM came to 2% and the inhibition at 5 µM was -7.3%. In addition, the “% Activity” value at VIPR2 [2] is −1.5%. In addition, at VIPR2 [3] (Batch 3), the inhibition at 0.5 µM was -0.8%, the inhibition at 1 µM worked out at 1.1% and the inhibition at 5 µM turned out to be 4.3%.
On to `CN(C)c1ccc(S(=O)(=O)NC[C@@H](O)C[C@@H](Cc2ccccc2)C(=O)N[C@H]2c3ccccc3C[C@H]2O)cc1` [Compound X083], for which, on VIPR2 [1] (Batch 3), the inhibition at 0.5 µM was found to be 9.4%, the inhibition at 1 µM was -1.4% and the inhibition at 5 µM is -3.4%. Moreover, at VIPR2 [2], the “% Activity” value stood at 2.65%. For the same compound, on VIPR2 [3] (Batch 3), the inhibition at 0.5 µM stood at 4.2%, the inhibition at 1 µM was -1.6% and the inhibition at 5 µM worked out at 8.7%.
As for `CCCNc1ccc(S(=O)(=O)NC[C@@H](O)C[C@@H](Cc2ccccc2)C(=O)N[C@H]2c3ccccc3C[C@H]2O)cc1` [Compound X084], on VIPR2 [1] (Batch 3), the inhibition at 0.5 µM was -2.9%, the inhibition at 1 µM was found to be 11.3% and the inhibition at 5 µM was found to be 24.5%. In addition, the “% Activity” value at VIPR2 [2] worked out at 15.6%. Further, at VIPR2 [3] (Batch 3), the inhibition at 0.5 µM came out at 4.1%, the inhibition at 1 µM was 2.6% and the inhibition at 5 µM came out at 6.7%.
In the case of `CC(C)Nc1ccc(S(=O)(=O)NC[C@@H](O)C[C@@H](Cc2ccccc2)C(=O)N[C@H]2c3ccccc3C[C@H]2O)cc1` [Compound X085], on VIPR2 [1] (Batch 3), the inhibition at 0.5 µM was 17.2%, the inhibition at 1 µM was 18.2% and the inhibition at 5 µM was determined as 20.6%. Moreover, the “% Activity” value at VIPR2 [2] stood at 16.2%. For the same compound, at VIPR2 [3] (Batch 3), the inhibition at 0.5 µM was found to be 8.1%, the inhibition at 1 µM was -2% and the inhibition at 5 µM turned out to be 11.8%.
With `CC(C)CNc1ccc(S(=O)(=O)NC[C@@H](O)C[C@@H](Cc2ccccc2)C(=O)N[C@H]2c3ccccc3C[C@H]2O)cc1` [Compound X086], on VIPR2 [1] (Batch 3), the inhibition at 0.5 µM amounted to 21.6%, the inhibition at 1 µM is 16.7% and the inhibition at 5 µM is 27.4%. Besides, the “% Activity” value on VIPR2 [2] worked out at 19.65%. On VIPR2 [3] (Batch 3), the inhibition at 0.5 µM was determined as 10.2%, the inhibition at 1 µM is 5.2% and the inhibition at 5 µM came out at 11.9%.
As to `CCCCCNc1ccc(S(=O)(=O)NC[C@@H](O)C[C@@H](Cc2ccccc2)C(=O)N[C@H]2c3ccccc3C[C@H]2O)cc1` [Compound X087], on VIPR2 [1] (Batch 3), the inhibition at 0.5 µM was 10.8%, the inhibition at 1 µM turned out to be 19.1% and the inhibition at 5 µM turned out to be 19.1%. Further, the “% Activity” value on VIPR2 [2] is on record as 15.2%. Also, on VIPR2 [3] (Batch 3), the inhibition at 0.5 µM is 2.8%, the inhibition at 1 µM worked out at 2.3% and the inhibition at 5 µM is 11.3%.
`CC(=O)Nc1ccc(S(=O)(=O)NC[C@@H](O)C[C@@H](Cc2ccccc2)C(=O)N[C@H]2c3ccccc3C[C@H]2O)cc1` [Compound X088]: on VIPR2 [1] (Batch 3), the inhibition at 0.5 µM worked out at 15.2%, the inhibition at 1 µM was 19.1% and the inhibition at 5 µM was determined as 19.1%. The “% Activity” value on VIPR2 [2] is 11.65%. In addition, on VIPR2 [3] (Batch 3), the inhibition at 0.5 µM is -1.2%, the inhibition at 1 µM came out at 4.9% and the inhibition at 5 µM stood at 4.2%.
Turning to `CC(=O)Nc1ccc(S(=O)(=O)NC[C@H](C[C@@H](Cc2ccccc2)C(=O)N[C@H]2c3ccccc3C[C@H]2O)OC(C)=O)cc1` [Compound X089], on VIPR2 [1] (Batch 3), the inhibition at 0.5 µM is -4.3%, the inhibition at 1 µM worked out at 32.3% and the inhibition at 5 µM came out at 3%. Besides, the “% Activity” value at VIPR2 [2] came to 6.75%. Moreover, at VIPR2 [3] (Batch 3), the inhibition at 0.5 µM was -9.8%, the inhibition at 1 µM was -1.8% and the inhibition at 5 µM was 10.5%.
Take `CC(=O)Nc1ccc(S(=O)(=O)NC[C@H](C[C@@H](Cc2ccccc2)C(=O)N[C@H]2c3ccccc3C[C@H]2OC(C)=O)OC(C)=O)cc1` [Compound X090]: on VIPR2 [1] (Batch 3), the inhibition at 0.5 µM is -8.7%, the inhibition at 1 µM was -8.7% and the inhibition at 5 µM was -5.8%. Also, on VIPR2 [2], the “% Activity” value is recorded as 1.95%. Moreover, at VIPR2 [3] (Batch 3), the inhibition at 0.5 µM worked out at 0.5%, the inhibition at 1 µM is 0.2% and the inhibition at 5 µM is 9.7%.
On to `CCC(=O)Nc1ccc(S(=O)(=O)NC[C@@H](O)C[C@@H](Cc2ccccc2)C(=O)N[C@H]2c3ccccc3C[C@H]2O)cc1` [Compound X091], for which, on VIPR2 [1] (Batch 3), the inhibition at 0.5 µM came out at 0.6%, the inhibition at 1 µM stood at 1.5% and the inhibition at 5 µM was 26.9%. The “% Activity” value at VIPR2 [2] came to 8.25%. For the same compound, at VIPR2 [3] (Batch 3), the inhibition at 0.5 µM is -3.4%, the inhibition at 1 µM is -1.2% and the inhibition at 5 µM is -10.4%.
With `CC(C)C(=O)Nc1ccc(S(=O)(=O)NC[C@@H](O)C[C@@H](Cc2ccccc2)C(=O)N[C@H]2c3ccccc3C[C@H]2O)cc1` [Compound X092], on VIPR2 [1] (Batch 3), the inhibition at 0.5 µM was determined as 1%, the inhibition at 1 µM was 6.9% and the inhibition at 5 µM was found to be 16.7%. In addition, at VIPR2 [2], the “% Activity” value turned out to be 4.6%. On VIPR2 [3] (Batch 3), the inhibition at 0.5 µM was 5.3%, the inhibition at 1 µM is 5.1% and the inhibition at 5 µM was -7.5%.
With `O=C(Nc1ccc(S(=O)(=O)NC[C@@H](O)C[C@@H](Cc2ccccc2)C(=O)N[C@H]2c3ccccc3C[C@H]2O)cc1)C1CC1` [Compound X093], at VIPR2 [1] (Batch 3), the inhibition at 0.5 µM is -2.4%, the inhibition at 1 µM was 23% and the inhibition at 5 µM worked out at 34.3%. For the same compound, the “% Activity” value at VIPR2 [2] is listed as 15.05%. Besides, on VIPR2 [3] (Batch 3), the inhibition at 0.5 µM turned out to be 6.4%, the inhibition at 1 µM was -0.3% and the inhibition at 5 µM was -4.2%.
With `O=C(O)c1ccc(S(=O)(=O)NC[C@@H](O)C[C@@H](Cc2ccccc2)C(=O)N[C@H]2c3ccccc3C[C@H]2O)cc1` [Compound X094], at VIPR2 [1] (Batch 3), the inhibition at 0.5 µM turned out to be 7.4%, the inhibition at 1 µM is 6.4% and the inhibition at 5 µM is 26%. The “% Activity” value at VIPR2 [2] came out at 13.1%. On VIPR2 [3] (Batch 3), the inhibition at 0.5 µM was determined as 6.4%, the inhibition at 1 µM is -1.8% and the inhibition at 5 µM was 0.2%.
Turning to `CNC(=O)c1ccc(S(=O)(=O)NC[C@@H](O)C[C@@H](Cc2ccccc2)C(=O)N[C@H]2c3ccccc3C[C@H]2O)cc1` [Compound X095], on VIPR2 [1] (Batch 3), the inhibition at 0.5 µM was 13.8%, the inhibition at 1 µM was found to be 22.1% and the inhibition at 5 µM was 69.5%. Moreover, the “% Activity” value on VIPR2 [2] came out at 34.25%. On VIPR2 [3] (Batch 3), the inhibition at 0.5 µM stood at 6.3%, the inhibition at 1 µM is -1.6% and the inhibition at 5 µM is -1%.
